What was measured:
[1] = system: MDR1 (human MDR1 or rat MDR1a); assay: Apparent permeability of the compound in pig LLC-PK1 cells expressing human MDR1 or rat MDR1a; format: ADME, cell-based, Sus scrofa
[2] = Volume of distribution in dog; format: ADME, Canis lupus familiaris; conditions: in vivo
[3] = Half life in rat; format: ADME; conditions: in vivo
[4] = Lipophilicity, logD of the compound; format: physicochemical; conditions: octanol/water
[5] = Clearance in rat plasma; format: ADME, cell-free
[6] = Half life in human liver microsomes; format: ADME
[7] = Half life in rat liver microsomes; format: ADME
[8] = Volume of distribution in rat; format: ADME; conditions: in vivo
[9] = Half life in dog; format: ADME, Canis lupus familiaris; conditions: in vivo
[10] = Clearance in dog plasma; format: ADME, cell-free, Canis lupus familiaris

Row | Papp [1] [×10⁻⁶ cm/s] | Vd [2] [L/kg] | half-life [3] [min] | logD [4] | clearance [5] [mL/min/kg] | half-life [6] [min] | half-life [7] [min] | Vd [8] [L/kg] | half-life [9] [min] | clearance [10] [mL/min/kg] | SMILES
1 | 12 | – | – | – | – | – | – | – | – | – | CC1(C)C(=O)N(C2CCCCC2)c2nc(Nc3ccccc3)ncc21
2 | – | 4 | 48 | 2.92 | 341 | 10 | 9 | 16.2 | 48 | 68 | CC1(C)C(=O)N([C@H]2CCc3c(O)cccc32)c2nc(Nc3ccccc3)ncc21
